Data reported in US20250320213A1, “Nitrogen-Containing Heterocyclic Compounds” (Pfizer Inc., priority 2024, published 2025).
pEC50: −log10 of the molar value.

Molecular target: T1, STAT6 (Homo sapiens, UniProt P42226)
T1 construct: stably transfected HaCaT keratinocyte cell line, which expresses NanoLuc luciferase reporter gene under the transcriptional control of the STAT6 responsive promoter; endogenous in cells; host or cells: HaCaT keratinocyte reporter cell line (stably transfected with a NanoLuc reporter)
T1 sequence (P42226 1-847): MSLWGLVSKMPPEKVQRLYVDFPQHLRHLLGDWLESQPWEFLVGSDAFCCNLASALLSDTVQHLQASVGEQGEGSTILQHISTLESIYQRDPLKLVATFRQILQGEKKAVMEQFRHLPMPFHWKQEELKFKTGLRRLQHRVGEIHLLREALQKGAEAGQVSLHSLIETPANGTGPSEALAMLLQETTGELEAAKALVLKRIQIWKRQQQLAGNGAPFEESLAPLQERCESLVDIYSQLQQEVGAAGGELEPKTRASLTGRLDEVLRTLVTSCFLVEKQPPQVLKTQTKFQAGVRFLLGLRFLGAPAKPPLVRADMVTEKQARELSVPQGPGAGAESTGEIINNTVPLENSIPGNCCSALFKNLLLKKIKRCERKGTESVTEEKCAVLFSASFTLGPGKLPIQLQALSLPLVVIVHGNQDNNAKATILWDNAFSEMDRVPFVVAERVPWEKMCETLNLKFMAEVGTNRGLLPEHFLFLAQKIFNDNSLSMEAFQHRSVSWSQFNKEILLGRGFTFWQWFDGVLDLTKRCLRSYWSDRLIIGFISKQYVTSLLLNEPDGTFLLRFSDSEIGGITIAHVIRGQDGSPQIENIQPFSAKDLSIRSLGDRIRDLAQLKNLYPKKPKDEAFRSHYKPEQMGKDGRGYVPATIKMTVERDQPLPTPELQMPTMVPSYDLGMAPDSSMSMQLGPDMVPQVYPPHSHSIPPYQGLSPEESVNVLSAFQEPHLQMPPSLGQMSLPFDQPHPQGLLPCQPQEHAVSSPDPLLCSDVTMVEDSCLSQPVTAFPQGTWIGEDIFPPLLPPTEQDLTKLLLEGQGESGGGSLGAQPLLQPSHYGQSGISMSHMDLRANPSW
Experiment: STAT6 Reporter Luciferase Assay (IL-13 stimulated HaCaT keratinocyte NanoLuc reporter cells)
Assay type: cell-based
Conditions: IL-13 stimulated HaCaT STAT6 NanoLuc reporter cells; read-out: Reporter EC50
How it was run: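 HaCaT IL-13Ra2-promoter NanoLuc reporter; cpd 2 h 37 °C in DMEM/2% HI FBS; IL-13 0.12 nM final, 4 h; Nano-Glo luminescence.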

| SMILES | pEC50 |
| --- | --- |
| COC[C@H]1CN(C(=O)Nc2ccc(CNC(=O)c3nn(C(C)C)c4c3CN(c3ccc(C(=O)N(C)C)cc3)C[C@@H]4C)cc2F)CCN1 [Example 689, (S)-5-(4-(dimethylcarbamoyl)phenyl)-N-(3-fluoro-4-((R)-3-(methoxymethyl)piperazine-1-carboxamido)benzyl)-1-isopropyl-7-methyl-4,5,6,7-tetrahydro-1H-pyrazolo[4,3-c]pyridine-3-carboxamide] | 9.00 |
| CC(C)n1nc(C(=O)NCc2ccc(NC(=O)N(C)C)cc2)c2c1CCN(c1ccc(C(=O)N3Cc4cccc(C#N)c4C3)cn1)C2 [Example 415, 5-(5-(4-cyanoisoindoline-2-carbonyl)pyridin-2-yl)-N-(4-(3,3-dimethylureido)benzyl)-1-isopropyl-4,5,6,7-tetrahydro-1H-pyrazolo[4,3-c]pyridine-3-carboxamide] | 8.52 |
| Cc1nn(C)c2c1CN(C(=O)c1ccc(N3CCc4c(c(C(=O)NCc5ccc(NC(=O)N(C)C)cc5)nn4C(C)C)C3)nc1)C2 [Example 401, 5-(5-(1,3-dimethyl-1,4,5,6-tetrahydropyrrolo[3,4-c]pyrazole-5-carbonyl)pyridin-2-yl)-N-(4-(3,3-dimethylureido)benzyl)-1-isopropyl-4,5,6,7-tetrahydro-1H-pyrazolo[4,3-c]pyridine-3-carboxamide] | 7.49 |
| CC(C)n1nc(C(=O)NCc2ccc(NC(=O)N(C)C)cc2)c2c1[C@@H](C)CN(c1ccc(C(=O)N3CCN4CCC[C@@H]4C3)cc1)C2 [Example 675, (S)-N-(4-(3,3-dimethylureido)benzyl)-1-isopropyl-7-methyl-5-(4-((R)-octahydropyrrolo[1,2-a]pyrazine-2-carbonyl)phenyl)-4,5,6,7-tetrahydro-1H-pyrazolo[4,3-c]pyridine-3-carboxamide] | 7.47 |
| CC(C)n1nc(C(=O)NCc2ccc(NC(=O)N(C)C)cc2)c2c1CCN(c1ccc(C(=O)N3CC4(CNC(=O)C4)C3)cn1)C2 [Example 327, N-(4-(3,3-dimethylureido)benzyl)-1-isopropyl-5-(5-(7-oxo-2,6-diazaspiro[3.4]octane-2-carbonyl)pyridin-2-yl)-4,5,6,7-tetrahydro-1H-pyrazolo[4,3-c]pyridine-3-carboxamide] | 5.49 |
| CC(C)n1nc(C(=O)NCc2ccc(NC(=O)N3CCC4(CCCN(C)C4)CC3)c(F)c2)c2c1[C@@H](C)CN(c1ccc(C(=O)N(C)C)cc1)C2 [Example 644, (S)-N-(4-((5-(4-(dimethylcarbamoyl)phenyl)-1-isopropyl-7-methyl-4,5,6,7-tetrahydro-1H-pyrazolo[4,3-c]pyridine-3-carboxamido)methyl)-2-fluorophenyl)-2-methyl-2,9-diazaspiro[5.5]undecane-9-carboxamide] | 9.00 |
| CC(C)n1nc(C(=O)NCc2ccc(NC(=O)N3CCC4(CCN(C)CC4)CC3)c(F)c2)c2c1[C@@H](C)CN(c1ccc(C(=O)N(C)C)cc1)C2 [Example 660, (S)-N-(4-((5-(4-(dimethylcarbamoyl)phenyl)-1-isopropyl-7-methyl-4,5,6,7-tetrahydro-1H-pyrazolo[4,3-c]pyridine-3-carboxamido)methyl)-2-fluorophenyl)-9-methyl-3,9-diazaspiro[5.5]undecane-3-carboxamide] | 8.40 |
| CC(C)n1nc(C(=O)NCc2ccc(NC(=O)N3CC[C@H](CN(C)C)C3)cc2)c2c1[C@@H](C)CN(c1ccc(C(=O)N(C)C)cc1)C2 [Example 756, (S)-N-(4-((R)-3-((dimethylamino)methyl)pyrrolidine-1-carboxamido)benzyl)-5-(4-(dimethylcarbamoyl)phenyl)-1-isopropyl-7-methyl-4,5,6,7-tetrahydro-1H-pyrazolo[4,3-c]pyridine-3-carboxamide] | 9.00 |
| CC(C)n1nc(C(=O)NCc2ccc(NC(=O)N(C)C)cc2)c2c1CCN(c1ccc(C(=O)N3CCNC(=O)CC3)cn1)C2 [Example 214, N-(4-(3,3-dimethylureido)benzyl)-1-isopropyl-5-(5-(5-oxo-1,4-diazepane-1-carbonyl)pyridin-2-yl)-4,5,6,7-tetrahydro-1H-pyrazolo[4,3-c]pyridine-3-carboxamide] | 6.30 |
| CC(C)n1nc(C(=O)NCc2ccc(NC(=O)N3CCC4(CC3)CN(C)C4)cc2)c2c1[C@@H](C)CN(c1ccc(C(=O)N(C)C)cc1)C2 [Example 742, (S)-5-(4-(dimethylcarbamoyl)phenyl)-1-isopropyl-7-methyl-N-(4-(2-methyl-2,7-diazaspiro[3.5]nonane-7-carboxamido)benzyl)-4,5,6,7-tetrahydro-1H-pyrazolo[4,3-c]pyridine-3-carboxamide] | 9.00 |
| CC(C)n1nc(C(=O)NCc2ccc(NC(=O)N(C)C)cc2)c2c1CCN(c1ccc(C(=O)N3CCc4c(ncn4C)C3)cn1)C2 [Example 421, N-(4-(3,3-dimethylureido)benzyl)-1-isopropyl-5-(5-(1-methyl-4,5,6,7-tetrahydro-1H-imidazo[4,5-c]pyridine-5-carbonyl)pyridin-2-yl)-4,5,6,7-tetrahydro-1H-pyrazolo[4,3-c]pyridine-3-carboxamide] | 7.74 |
| Cc1nc2n(c1C)CCN(C(=O)c1ccc(N3CCc4c(c(C(=O)NCc5ccc(NC(=O)N(C)C)cc5)nn4C(C)C)C3)nc1)C2 [Example 414, 5-(5-(2,3-dimethyl-5,6,7,8-tetrahydroimidazo[1,2-a]pyrazine-7-carbonyl)pyridin-2-yl)-N-(4-(3,3-dimethylureido)benzyl)-1-isopropyl-4,5,6,7-tetrahydro-1H-pyrazolo[4,3-c]pyridine-3-carboxamide] | 7.18 |
| CC(C)n1nc(C(=O)NCc2ccc(NC(=O)N(C)C)cc2)c2c1CCN(c1ccc(C(=O)N3Cc4ccncc4C3)cn1)C2 [Example 378, 5-(5-(2,3-dihydro-1H-pyrrolo[3,4-c]pyridine-2-carbonyl)pyridin-2-yl)-N-(4-(3,3-dimethylureido)benzyl)-1-isopropyl-4,5,6,7-tetrahydro-1H-pyrazolo[4,3-c]pyridine-3-carboxamide] | 7.82 |
| CC(C)n1nc(C(=O)NCc2ccc(NC(=O)N3CC[C@@H](N(C)C)C3)c(F)c2)c2c1[C@@H](C)CN(c1ccc(C(=O)N(C)C)cc1)C2 [Example 678, (S)-N-(4-((R)-3-(dimethylamino)pyrrolidine-1-carboxamido)-3-fluorobenzyl)-5-(4-(dimethylcarbamoyl)phenyl)-1-isopropyl-7-methyl-4,5,6,7-tetrahydro-1H-pyrazolo[4,3-c]pyridine-3-carboxamide] | 8.52 |
| [2H]C([2H])([2H])N(C(=O)Nc1ccc(CNC(=O)c2nn(C(C)C)c3c2CN(c2ccc(C(=O)N(C)C)cc2)C[C@@H]3C)cc1)C([2H])([2H])[2H] [Example 315, (S)-N-(4-(3,3-bis(methyl-d3)ureido)benzyl)-5-(4-(dimethylcarbamoyl)phenyl)-1-isopropyl-7-methyl-4,5,6,7-tetrahydro-1H-pyrazolo[4,3-c]pyridine-3-carboxamide] | 8.70 |
| CC(C)n1nc(C(=O)NCc2ccc(NC(=O)N3CCN(C)CC3)cc2)c2c1C(C(F)(F)F)CN(c1ccc(C(=O)N(C)C)cn1)C2 (single isomer, unassigned) [Example 693, rel-(R or S)-5-(5-(dimethylcarbamoyl)pyridin-2-yl)-1-isopropyl-N-(4-(4-methylpiperazine-1-carboxamido)benzyl)-7-(trifluoromethyl)-4,5,6,7-tetrahydro-1H-pyrazolo[4,3-c]pyridine-3-carboxamide] | 7.80 |
| CC(C)n1nc(C(=O)NCc2ccc(NC(=O)N(C)C)cc2)c2c1CCN(c1ccc(C(=O)N3Cc4cn(C)nc4C3)cn1)C2 [Example 385, N-(4-(3,3-dimethylureido)benzyl)-1-isopropyl-5-(5-(2-methyl-2,4,5,6-tetrahydropyrrolo[3,4-c]pyrazole-5-carbonyl)pyridin-2-yl)-4,5,6,7-tetrahydro-1H-pyrazolo[4,3-c]pyridine-3-carboxamide] | 8.40 |
| CC(C)n1nc(C(=O)NCc2ccc(NC(=O)N3CC4(CN(C)C4)C3)cc2)c2c1[C@@H](C)CN(c1ccc(C(=O)N(C)C)cc1)C2 [Example 751, (S)-5-(4-(dimethylcarbamoyl)phenyl)-1-isopropyl-7-methyl-N-(4-(6-methyl-2,6-diazaspiro[3.3]heptane-2-carboxamido)benzyl)-4,5,6,7-tetrahydro-1H-pyrazolo[4,3-c]pyridine-3-carboxamide] | 8.05 |
